What was measured:
[1] = Detergency against keratotic plugs: penetration of the sample into keratotic plugs; design: species or system human; conditions: keratotic plugs kept in contact with sample for 1 minute; results of Table 1
Procedure: (§1) Keratotic plugs in the nasal region were removed with “Biore Nose Pack (manufactured by Kao Corporation)”, the resulting keratotic plugs on the pack were gently taken out with tweezers.
(§2) The resulting keratotic plugs were placed on a slide glass and were covered with a cover glass, and 0.05 mL of a sample was dropwise added to an edge of the cover glass. Consequently, the sample entered into the gap between the slide glass and the cover glass by capillary phenomenon and was brought into contact with the keratotic plugs. The contact of the keratotic plugs with the sample was recorded with a digital microscope (VHX-5000, manufactured by Keyence Corporation, magnification: ×150), and the penetration of the sample into the keratotic plugs and the collapse state of the keratotic plugs were evaluated after one minute from the contact of the keratotic plugs with the sample. The results of each evaluation are shown in the columns “Detergency against keratotic plugs (penetration)” and “Detergency against keratotic plugs (during cleansing)” in Tables. The measurements were performed at 25° C.
(§3) The penetration was relatively evaluated by 11 criteria from the state 1 “the sample hardly penetrated into the keratotic plug” to the state 11 “the sample penetrated to the center of the keratotic plug”. The collapsibility by the detergency against keratotic plugs was relatively evaluated by 11 criteria from the state 1 “almost no change is observed in the external appearance of the keratotic plug” to the state 11 “peeling or separation is observed in the area from the surface layer to the central portion of the keratotic plug (the initial appearance of the keratotic plug is not retained)”.

[2] = Detergency against keratotic plugs during cleansing (collapse state); design: species or system human; conditions: keratotic plugs kept in contact with sample for 1 minute; results of Table 1
Procedure: as §1, §2, §3

[3] = Detergency against keratotic plugs after washing with water (collapse state); design: species or system human; conditions: keratotic plugs kept in contact with water for 1 minute after contact with sample
Excerpt: as §3
After one minute from the contact of the keratotic plugs with the sample, KimWipes (registered trademark) was brought into contact with an edge of the cover glass to remove the sample under the cover glass. Subsequently, 0.05 mL of water was dropwise added to an edge of the cover glass. The sample dropwise added with water was recorded with the digital microscope, and the collapse state of the keratotic plugs was evaluated after one minute from the contact of the keratotic plugs with water according to the criteria for evaluating collapsibility of the keratotic plugs. The results of the evaluation are shown in the column “Detergency against keratotic plugs (after washing with water)” in Table. The measurements were performed at 25° C.

[4] = cited from earlier work
[5] = system: insoluble protein (zein protein); test: Effect of suppressing protein aggregation (precipitation of insoluble protein); conditions: results of Table 1
Procedure: Thirty milliliters of a sample and 0.06 g of an insoluble protein (zein protein) were placed in a 35-mL standard glass bottle, and the concentration of the insoluble protein was adjusted to 0.2 mass % (test sample). Separately, a standard sample was prepared by using water instead of the sample and adjusting the concentration of the insoluble protein to 0.2 mass %. Subsequently, the standard glass bottles were sufficiently shaken and stirred up and down (shake width: 15 cm, 20 times at a shake rate of 5 times per 3 seconds) in a thermostatic chamber of 25° C. and were left to stand for 3 minutes. The precipitation state of the insoluble protein was then visually verified, and the ratio of the amount of the precipitated standard sample to the amount of the precipitated test sample (the height of the precipitate in each standard glass bottle was measured as the precipitation amount), (precipitation amount of standard sample)/(precipitation amount of test sample), was calculated. A higher ratio indicates a higher effect of suppressing protein aggregation.

Molecule	penetration into keratotic plugs (in words) [1]	collapse of keratotic plugs on contact with sample (in words) [2]	collapse of keratotic plugs on contact with water after the sample (in words) [3]	solubility in water (in words) [4]	action on proteins (in words) [5]
O=C([O-])O.[Na+] [sodium hydrogen carbonate]	hardly penetrated into keratotic plugs	did not progress	did not progress	–	–
NC(CO)(CO)CO [Tris, 2-amino-2-hydroxymethyl-1,3-propanediol]	penetrated into keratotic plugs	–	accelerating the collapse	readily dissolved in water	–
O=P([O-])([O-])O.[Na+].[Na+] [disodium hydrogen phosphate]	hardly penetrated into keratotic plugs	did not progress	did not progress	–	–
O=P([O-])([O-])[O-].[Na+].[Na+].[Na+] [trisodium phosphate]	hardly penetrated into keratotic plugs	did not progress	did not progress	–	–
sodium polyoxyethylene (2) lauryl ether sulfate [POE (2) sodium lauryl sulfate]	hardly penetrated into the keratotic plugs	did not progress	–	–	dissolve the proteins
CC(C)(N)CO [AMP, 2-amino-2-methyl-1-propanol]	penetrated into keratotic plugs	–	accelerating the collapse	readily dissolved in water	–
CC(N)(CO)CO [AMPD, 2-amino-2-methyl-1,3-propanediol]	penetrated into keratotic plugs	–	accelerating the collapse	–	–
